Data taken from PubChem BioAssay (NCI).
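A five-concentration, 48-hour dose response in 96-well plates underlies each endpoint, interpolated linearly between surrounding concentrations. GI50 is the concentration that inhibits growth by half. At the TGI there is no net growth.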

Columns and labels:
Test in all cases: growth of human tumour cells (NCI), 48 h
MOLT-4 leukemia = system: MOLT-4 leukemia
NCI-H226 lung = system: NCI-H226 lung
NCI-H23 lung = system: NCI-H23 lung
NCI-H460 lung = system: NCI-H460 lung
NCI-H522 lung = system: NCI-H522 lung
NCI/ADR-RES ovarian = system: NCI/ADR-RES ovarian
OVCAR-3 ovarian = system: OVCAR-3 ovarian
OVCAR-4 ovarian = system: OVCAR-4 ovarian
OVCAR-5 ovarian = system: OVCAR-5 ovarian
OVCAR-8 ovarian = system: OVCAR-8 ovarian
PC-3 prostate = system: PC-3 prostate
RPMI-8226 leukemia = system: RPMI-8226 leukemia
RXF 393 renal = system: RXF 393 renal
SF-268 CNS = system: SF-268 CNS
SF-295 CNS = system: SF-295 CNS
SF-539 CNS = system: SF-539 CNS
SK-MEL-2 melanoma = system: SK-MEL-2 melanoma
SK-MEL-28 melanoma = system: SK-MEL-28 melanoma
SK-MEL-5 melanoma = system: SK-MEL-5 melanoma
SK-OV-3 ovarian = system: SK-OV-3 ovarian
SNB-75 CNS = system: SNB-75 CNS
SW-620 colon = system: SW-620 colon
T-47D breast = system: T-47D breast
TK-10 renal = system: TK-10 renal
U251 CNS = system: U251 CNS
UACC-257 melanoma = system: UACC-257 melanoma
UO-31 renal = system: UO-31 renal

Structure (SMILES): CN(C)c1nc(NCCNS(=O)(=O)c2ccc(C3=Nc4c(N)nc(N)nc4NC(c4ccc(C(F)(F)F)cc4)C3)cc2)nc(Nc2ccc(F)cc2)n1 (centres undefined)
- GI50 (MOLT-4 leukemia): 2.74 µM
- TGI (MOLT-4 leukemia): > 86 µM
- GI50 (NCI-H226 lung): 37.3 µM
- TGI (NCI-H226 lung): > 86 µM
- GI50 (NCI-H23 lung): 27.7 µM
- TGI (NCI-H23 lung): > 86 µM
- GI50 (NCI-H460 lung): 5.49 µM
- TGI (NCI-H460 lung): > 86 µM
- GI50 (NCI-H522 lung): 17.8 µM
- TGI (NCI-H522 lung): 44.8 µM
- GI50 (NCI/ADR-RES ovarian): > 86 µM
- TGI (NCI/ADR-RES ovarian): > 86 µM
- GI50 (OVCAR-3 ovarian): 11.9 µM
- TGI (OVCAR-3 ovarian): > 86 µM
- GI50 (OVCAR-4 ovarian): 25 µM
- TGI (OVCAR-4 ovarian): > 86 µM
- GI50 (OVCAR-5 ovarian): 19.9 µM
- TGI (OVCAR-5 ovarian): > 86 µM
- GI50 (OVCAR-8 ovarian): 26.1 µM
- TGI (OVCAR-8 ovarian): > 86 µM
- GI50 (PC-3 prostate): 4.37 µM
- TGI (PC-3 prostate): > 86 µM
- GI50 (RPMI-8226 leukemia): 4 µM
- TGI (RPMI-8226 leukemia): > 86 µM
- GI50 (RXF 393 renal): 2.57 µM
- TGI (RXF 393 renal): 18.8 µM
- GI50 (SF-268 CNS): 11.2 µM
- TGI (SF-268 CNS): > 86 µM
- GI50 (SF-295 CNS): 12.9 µM
- TGI (SF-295 CNS): > 86 µM
- GI50 (SF-539 CNS): 6.22 µM
- TGI (SF-539 CNS): 24.7 µM
- GI50 (SK-MEL-2 melanoma): 10.8 µM
- TGI (SK-MEL-2 melanoma): 24.7 µM
- GI50 (SK-MEL-28 melanoma): 15 µM
- TGI (SK-MEL-28 melanoma): > 86 µM
- GI50 (SK-MEL-5 melanoma): 10.4 µM
- TGI (SK-MEL-5 melanoma): 21.3 µM
- GI50 (SK-OV-3 ovarian): > 86 µM
- TGI (SK-OV-3 ovarian): > 86 µM
- GI50 (SNB-75 CNS): 2.13 µM
- TGI (SNB-75 CNS): > 86 µM
- GI50 (SW-620 colon): 14.3 µM
- TGI (SW-620 colon): > 86 µM
- GI50 (T-47D breast): 12 µM
- TGI (T-47D breast): > 86 µM
- GI50 (TK-10 renal): > 86 µM
- TGI (TK-10 renal): > 86 µM
- GI50 (U251 CNS): 5.52 µM
- TGI (U251 CNS): > 86 µM
- GI50 (UACC-257 melanoma): 23.3 µM
- TGI (UACC-257 melanoma): > 86 µM
- GI50 (UO-31 renal): > 86 µM
- TGI (UO-31 renal): > 86 µM
